Data taken from patent publication US20110177161A1, “PHARMACEUTICAL COMPOSITIONS OF [5(S)-(2'-HYDROXYETHOXY)-20(S)-CAMPTOTHECIN” (DR. REDDY'S LABORATORIES LIMITED, priority 2007, published 2011).

Columns and labels:
[1] = molecular target: T1, Topoisomerase I (Homo sapiens, UniProt P11387); assay: Topoisomerase assay (TopoGEN Topo I Drug Screening Kit); assay type: biochemical
T1 construct: purchased Topogen, Inc., Port Orange, Fla
T1 sequence (P11387 1-765): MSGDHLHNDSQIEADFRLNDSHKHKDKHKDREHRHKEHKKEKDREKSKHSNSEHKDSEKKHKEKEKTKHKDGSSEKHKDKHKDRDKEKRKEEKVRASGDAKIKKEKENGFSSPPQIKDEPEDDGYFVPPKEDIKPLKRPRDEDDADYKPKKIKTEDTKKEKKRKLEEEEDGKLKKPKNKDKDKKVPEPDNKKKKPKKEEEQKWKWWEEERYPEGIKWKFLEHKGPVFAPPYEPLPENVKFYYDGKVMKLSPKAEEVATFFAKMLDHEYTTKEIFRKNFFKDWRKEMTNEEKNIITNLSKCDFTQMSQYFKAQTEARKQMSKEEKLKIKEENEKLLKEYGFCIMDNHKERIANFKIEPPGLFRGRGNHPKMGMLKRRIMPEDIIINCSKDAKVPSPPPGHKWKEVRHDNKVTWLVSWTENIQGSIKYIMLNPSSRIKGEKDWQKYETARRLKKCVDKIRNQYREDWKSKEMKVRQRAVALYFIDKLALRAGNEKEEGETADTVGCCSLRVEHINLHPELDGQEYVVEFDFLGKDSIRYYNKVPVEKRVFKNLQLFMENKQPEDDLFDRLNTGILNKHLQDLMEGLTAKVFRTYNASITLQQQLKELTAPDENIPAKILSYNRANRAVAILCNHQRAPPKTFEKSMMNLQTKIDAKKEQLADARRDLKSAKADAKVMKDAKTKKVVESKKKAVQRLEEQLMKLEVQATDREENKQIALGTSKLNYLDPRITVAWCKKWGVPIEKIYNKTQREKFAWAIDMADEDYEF
Text: Topoisomerase I introduces transient nicks in DNA at specific sites. Detection of these transient DNA nicks requires trapping the enzyme on DNA in a nicked intermediate complex using protein denaturants. The resulting covalent DNA/top I complexes contain nicked open circular DNA which can be detected by agarose gel electrophoresis (with ethidium bromide). Trapping nicked intermediates is relatively inefficient, however, inhibitors, such as the natural product camptothecin, stabilize the intermediate and lead to an increase in the nicked DNA product. This forms the basis for a mechanistic drug screen designed to allow detection of agents that affect topoisomerase I by stabilizing the cleaved intermediate complex.
The TopoGEN Topo I Drug Screening Kit (Topogen, Inc., Port Orange, Fla.) is designed to allow the investigator to quickly identify novel inhibitors of topoisomerase I. The kit allows the detection of novel compounds that either stabilize the nicked intermediate or otherwise inhibit catalytic activity of topoisomerase I.
The above reaction mixture is incubated at 37 degree C. for 30 minutes. The reaction is terminated by adding 2 μl of 10% SDS and the mixture is vortexed rapidly (SDS should be added while at 37 degree C. as cooling the tubes might reseal the nicked DNA). 10× Dye, about 2.5 μl per tube, is added and equal volumes of a mixture of chloroform and isoamyl alcohol (24:1) is added and centrifuged at 13000 rpm for 10 minutes. Samples are loaded on a 1% agarose gel and electrophoresed for 1 hour at 80 volts. The gel was viewed on UV transilluminator and the densitometric estimation of the bands was calculated.
The density of the DNA bands of both super coiled and relaxed forms of DNA was measured using the densitometer. The band intensity of treated (with single concentration of the test drug) and without the drug (i.e., the Control) were recorded. The percentage of relaxed form DNA compared to the supercoiled DNA was calculated for all the lanes including treated and control. • % inhibition of Topoisomerase activity was calculated as: […]

[2] = tested on: Osteosarcoma-17 xenograft; assay: Osteosarcoma tumor regression model; assay type: in vivo, mice; design: key: 6+: Maintained Complete Regression; 5+: Complete Regression; 4+: Partial Regression; 3+: Stable Disease; details: 28 mg/kg oral gavage, [(d×5)2]3 schedule
Description: (§1) This test was carried out with the use of the methods described in Cancer, Res., Oct. 15, 64:20:7491-9 (2004), and in Clin. Cancer Res., Nov. 15:9 (15):5442-53 (2003).
(§2) All mice bearing subcutaneous (“Sc”) tumors measuring approximately 0.2-1 cm in diameter were treated with a test compound by oral gavage using [(d×5)2]3 schedule. […] The tumor response to the test compound was defined as follows: For individual tumors, partial regression (“PR”) was defined as a volume regression >50%, but with measurable tumor at all times. Complete regression (“CR”) was defined as disappearance of measurable tumor mass at some point within 12 weeks after initiation of therapy. Maintained CR is defined as no tumor re-growth within a 12-week study time frame. This time point was chosen because all studies lasted at least 12 weeks. Mice that died before the end of the 12-week study time, and prior to achieving a response, were considered as failures for tumor response.

[3] = tested on: Osteosarcoma-2 xenograft; assay: Osteosarcoma tumor regression model; assay type: in vivo, mice; design: key: 6+: Maintained Complete Regression; 5+: Complete Regression; 4+: Partial Regression; 3+: Stable Disease; details: 28 mg/kg oral gavage, [(d×5)2]3 schedule
Description: as §1, §2

[4] = tested on: Osteosarcoma-29 xenograft; assay: Osteosarcoma tumor regression model; assay type: in vivo, mice; design: key: 6+: Maintained Complete Regression; 5+: Complete Regression; 4+: Partial Regression; 3+: Stable Disease; details: 28 mg/kg oral gavage, [(d×5)2]3 schedule
Description: as §1, §2

[5] = tested on: Osteosarcoma-32 xenograft; assay: Osteosarcoma tumor regression model; assay type: in vivo, mice; design: key: 6+: Maintained Complete Regression; 5+: Complete Regression; 4+: Partial Regression; 3+: Stable Disease; details: 28 mg/kg oral gavage, [(d×5)2]3 schedule
Description: as §1, §2

CC[C@@]1(O)C(=O)OCc2c1cc1n(c2=O)[C@@H](OCCO)c2cc3ccccc3nc2-1 [DRF-(5S,20S)-1042, 5(S)-(2′-hydroxyethoxy)-20(S)-camptothecin]
fold more active than 5(R)-(2′-hydroxyethoxy)-20(S)-camptothecin in inhibiting topoisomerase I [1]: about 21 fold | times more active than 5(RS)-(2′-hydroxyethoxy)-20(S)-camptothecin in inhibiting topoisomerase I [1]: about 12 times | Tumor response [2]: 6+ | Tumor response [3]: 6+ | Tumor response [4]: 6+ | Tumor response [5]: 6+

CC[C@@]1(O)C(=O)OCc2c1cc1n(c2=O)C(OCCO)c2cc3ccccc3nc2-1 (mixture of isomers) [5(RS)-(2′-hydroxyethoxy)-20(S)-camptothecin, reference compound]
IC50 [1]: 12.5 µM | Tumor response [2]: 4+ | Tumor response [3]: 5+ | Tumor response [4]: 5+ | Tumor response [5]: 3+
